From patent US20240084305A1, “MODULATORS OF CELL PROLIFERATION AND USES THEREOF” (Kumquat Biosciences Inc., priority 2020, published 2024) come the findings set out here.

In general, inhibition refers to the relative decrease from the control value, in per cent.

Type in all cases: cell-based
Assay [1] concerns A427, ASPC1 and Ls513 cancer cell lines (KRAS G12D mutation). The assay is described as follows: cell growth inhibition in 3D suspension culture after lentiviral shRNA KRAS knockdown plus inhibitor, Bliss independence model. The settings on record: for degree of synergy of cell growth inhibition (excess over Bliss): all cell lines tested. From the text:
This study explores the inhibition of a variety types (e.g., Kras G12D driven tumor cells) of cancer cells using a combination of nucleic-acid based Kras12D inhibitor and SOS inhibitor. Cell lines utilized include A427, a non-small cell lung cancer (NSCLC), ASPC1, a pancreatic cancer, and Ls513, colorectal cancer cell line. All three cell lines contain a KRAS G12D mutation. The cancer cell lines were adherently cultured in vitro and transduced with lentiviral particles packaged with shRNAs targeting either KRAS or negative control gene Luciferase.
Amphotropic lentiviruses were produced by the co-transfection of 293FT cells and were packaged using the ViraPower lentiviral expression system (ThermoFisher Scientific). Lentiviral shRNA clones targeting luciferase (as sh-Ctrl) and KRAS were obtained from Sigma in the MISSION pLKO.1-puro vector with clone IDs as follows: shKRAS #1: TRCN0000033262, NM_033360.2-509s1c1, shKRAS #2: TRCN0000033260, NM_033360.2-407s1c1, and the Luciferase shRNA control plasmid DNA (Cat #SHC007, Sigma). Viral supernatants were filtered through a 0.45 µm filter and supplemented with […] of polybrene (Sigma) and added to 70% confluent cells pre-plated in six-well dishes. Plates were spinfected for 1 h under 600×g at 37° C. centrifugation. Cells were subsequently washed with PBS and allowed to rest 48 hours in fresh culture media at 37° C. Next, cells were reseeded as 3D suspensions (ultra-low adherent plates) into 384 well plates in RPMI medium containing 10% FBS. Approximately 24 hrs later, 10 uM SOS inhibitor as described herein or DMSO (as negative control) was added to the cell cultures for a period of about 5 days. […] The degree of synergy for the combination across cell lines was calculated by using the Bliss independence model. […] The greater the departure from Bliss indicates more profound synergy: <0 is no synergism, 0.05-0.1 is mild synergy, 0.1-0.2 moderate synergy, and >0.2 is robust synergy.
Amphotropic lentiviruses were produced in the same manner as described in the preceding Example 6. 1 uM SHP2 inhibitor as described herein or DMSO (as negative control) was added to the cell cultures for a period of about 5 days. […] The degree of synergy for the combination across cell lines was calculated by using the Bliss independence model. […] The greater the departure from Bliss indicates more profound synergy: <0 is no synergism, 0.05-0.1 is mild synergy, 0.1-0.2 moderate synergy, and >0.2 is robust synergy.
Amphotropic lentiviruses were produced in the same manner as described in the preceding Example 6. […] The concentration of the respective EGFR inhibitors utilized in this cell assay was chosen to be within the range corresponding to achievable exposures and pharmacokinetics of a recommended and clinically relevant doses applied in human. […] The degree of synergy for the combination across cell lines was calculated by using the Bliss independence model as exemplified in the preceding Example 6.
Amphotropic lentiviruses were produced in the same manner as described in the preceding Example 6. 3 nM of Trametinib or DMSO (negative control) was added to the cell cultures for a period of about 5 days. The concentration of the MEK inhibitor utilized in this cell assay was chosen to be within the range corresponding to achievable exposures and pharmacokinetics of a recommended and clinical relevant dose applied in human. […] The degree of synergy for the combination across cell lines was calculated by using the Bliss independence model as exemplified in the preceding Example 6.
Amphotropic lentiviruses were produced in the same manner as described in the preceding Example 6.

Assay [2] concerns A427, ASPC1, Panc04.03, Ls174T, Ls513, AGS and HEClA cancer cell lines (KRAS G12D mutation). The assay is described as follows: 3D proliferation assay (ultra-low attachment plates), small molecule Kras12D inhibitor plus second inhibitor, Bliss independence model. From the text: This study explores the inhibition of a variety types of cancer cells (e.g., KRAS G12D driven tumor cells) using a combination of small molecule based Kras12D inhibitor and SOS inhibitor. Cell lines from multiple indications were utilized and include the A427 (a non-small cell lung cancer, “NSCLC”), ASPC1 and Panc04.03 (both pancreatic cancer), Ls174T and Ls513 (both colorectal cancer), AGS (a gastric cancer), and HEClA (an endometrial cancer cell line). All cell lines contain a KRAS G12D mutation. The seven cancer cell lines were cultured in vitro in a 3D proliferation assay where cells are grown in ultra-low attachment surface cell culture plates in RPMI medium containing ˜10% FBS. Cells were incubated with different concentrations of SOS inhibitor (e.g., 10 uM, 3 uM, or 1 uM) and with different concentrations of a Kras12D inhibitors (either Compound A, Compound B, or Compound C, e.g., 0.1 uM, 0.3 uM, 1.0 uM, 3.0 uM) for a period of 5 days. […] The degree of synergy for the combination across cell lines was calculated by using the Bliss independence model as described herein. […] The greater the departure from Bliss indicates more profound synergy: ≤0 indicates no synergism, 0.05-0.1 indicates mild synergy, 0.1-0.2 indicates moderate synergy, and >0.2 indicates robust synergy.
This study explores the inhibition of a variety types of cancer cells (e.g., KRAS G12D driven tumor cells) using a combination of small molecule based Kras12D inhibitor and SHP2 inhibitor. Cell lines from multiple indications were utilized and include the A427 (a non-small cell lung cancer, “NSCLC”), ASPC1 and Panc04.03 (both pancreatic cancer), Ls174T and Ls513 (both colorectal cancer), AGS (a gastric cancer), and HEClA (an endometrial cancer cell line). All cell lines contain a KRAS G12D mutation. The seven cancer cell lines were cultured in vitro in a 3D proliferation assay where cells are grown in ultra-low attachment surface cell culture plates in RPMI medium containing 10% FBS. Cells were incubated with different concentrations of SHP2 inhibitor (e.g., 10 uM, 3 uM, or 1 uM) and with different concentrations of a Kras12D inhibitors (either Compound A, Compound B, or Compound C, e.g., 0.1 uM, 0.3 uM, 1.0 uM, 3.0 uM) for a period of 5 days. […] The degree of synergy for the combination across cell lines was calculated by using the Bliss independence model as described in the preceding examples.
The study explores the inhibition of a variety types of cancer cells (e.g., KRAS G12D driven tumor cells) using a combination of small molecule based Kras12D inhibitor and EGFR inhibitor.

Assay [3] shares this test system. Described as above. Conditions: for cell growth inhibition: across the cell line panel; for maximal cell growth inhibition, on average: average over cell line panel.

On to `C[C@@H]1OCC2(CCN(c3cnc(Sc4ccnc(N)c4Cl)c(N)n3)CC2)[C@@H]1N` [SHP2 inhibitor, (3S,4S)-8-(6-amino-5-((2-amino-3-chloropyridin-4-yl)thio)pyrazin-2-yl)-3-methyl-2-oxa-8-azaspiro[4.5]decan-4-amine], for which the “degree of synergy of cell growth inhibition (excess over Bliss)” value in assay [1] (1 uM SHP2 inhibitor in combination with nucleic-acid based Kras12D inhibitor (shRNA KRAS), about 5 days) is “moderate (0.1-0.2 moderate synergy)”. The cell growth inhibition entry in assay [2] (SHP2 inhibitor as single agent, across its concentration range (up to 10 uM), across the cell line panel) was “no more than 75%”. Moreover, the “maximal cell growth inhibition, on average” value in assay [2] (SHP2 inhibitor as single agent, average over cell line panel) is “about 36%”.
In the case of `CN(C)C/C=C/C(=O)Nc1cc2c(Nc3ccc(F)c(Cl)c3)ncnc2cc1O[C@H]1CCOC1` [afatinib], the cell growth inhibition entry in assay [3] (afatinib as single agent, across its concentration range (up to 1 uM)) was “no more than 86%”. For the same compound, the inhibition at 0.1 µM in assay [1] (0.1 uM in combination with nucleic-acid based Kras12D inhibitor, pancreatic, colorectal and NSCLC cell lines) was not above 75%; in assay [1] (120 h, single agent, 0.1 uM, about 5 days), less than 30%.
In the case of `Cc1c(C#N)cccc1[C@@H](C)Nc1nnc(C)c2cnc(N3CCOCC3)cc12` [SOS inhibitor], the “degree of synergy of cell growth inhibition (excess over Bliss)” value in assay [1] (10 uM SOS inhibitor in combination with nucleic-acid based Kras12D inhibitor (shRNA KRAS), about 5 days) was “robust (>0.2 is robust synergy)”. Moreover, the cell growth inhibition entry in assay [2] (SOS inhibitor as single agent, across its concentration range (up to 10 uM), across the cell line panel) is given as “no more than 50%”; in assay [2] (SOS inhibitor tested alone (FIG. 12 cell lines)) it was “no significant cell growth inhibition”.
With `Cc1nc(NC(=O)N2CCC[C@H]2C(N)=O)sc1-c1ccnc(C(C)(C)C(F)(F)F)c1` [BYL719], the cell growth inhibition entry is “no more than 88%” in assay [3] (PI3Ka inhibitor (BYL719) as single agent, across its concentration range (up to 10 uM)) and “up to 87%” in assay [1] (0.3 uM PI3K-alpha inhibitor (BYL719) in combination with nucleic-acid based Kras12D inhibitor). Moreover, in assay [3] (PI3Ka inhibitor (BYL719) as single agent), the “maximal cell growth inhibition, on average” value is recorded as “about 58%”. The “degree of synergy of cell growth inhibition (excess over Bliss)” value in assay [1] (0.3 uM PI3K-alpha inhibitor (BYL719) in combination with nucleic-acid based Kras12D inhibitor, 5 days) is “little to moderate”.
As to `C#Cc1cccc(Nc2ncnc3cc(OCCOC)c(OCCOC)cc23)c1` [erlotinib], the inhibition at 3 µM is not above 75% in assay [1] (3 uM in combination with nucleic-acid based Kras12D inhibitor, pancreatic, colorectal and NSCLC cell lines); less than 30% in assay [1] (120 h, single agent, 3 uM, about 5 days). Further, the cell growth inhibition entry in assay [2] (erlotinib as single agent, across its concentration range (up to 10 uM), across the cell line panel) was “no more than 72%”. Besides, in assay [2] (erlotinib as single agent, average over cell line panel), the “maximal cell growth inhibition response, on average” value is recorded as “under 50%”.
Take `CC(=O)Nc1cccc(-n2c(=O)n(C3CC3)c(=O)c3c(Nc4ccc(I)cc4F)n(C)c(=O)c(C)c32)c1` [Trametinib, trametinib]: in assay [3] (MEK inhibitor as single agent, across its concentration range (up to 0.01 uM)), the cell growth inhibition result was “no more than 68%”. Also, the “maximal cell growth inhibition, on average” value in assay [3] (MEK inhibitor as single agent) is listed as “about 42%”. Also, the inhibition at 0.003 µM in assay [1] (3 nM Trametinib in combination with nucleic-acid based Kras12D inhibitor) is not above 89%; in assay [1] (single agent, 3 nM Trametinib), less than 50%.
For the compound `CC(=O)c1c(C)c2cnc(Nc3ccc(N4CCNCC4)cn3)nc2n(C2CCCC2)c1=O` [palbociclib], the cell growth inhibition entry in assay [3] (CDK4/6 inhibitor (palbociclib) as single agent, across its concentration range (up to 1 uM)) is given as “no more than 81%”; in assay [1] (0.3 uM CDK4/6 inhibitor (Palbociclib) in combination with nucleic-acid based Kras12D inhibitor), “up to 79%”. Also, the “maximal cell growth inhibition, on average” value in assay [3] (CDK4/6 inhibitor (palbociclib) as single agent) was “about 48%”.
